Results reported in patent US20070293486A1, “Alpha-Keto Carbonyl Calpain Inhibitors” (SANTHERA PHARMACEUTICALS (SCHWEIZ) AG, priority 2004, published 2007).

Legend:
20S Proteasome = target: T1, 20S Proteasome (Oryctolagus cuniculus, UniProt G1T4Q9); assay: 20S Proteasome Assay; type: biochemical; conditions: Rabbit, read-out: 20S Prot IC50
T1 sequence (G1T4Q9 1-263): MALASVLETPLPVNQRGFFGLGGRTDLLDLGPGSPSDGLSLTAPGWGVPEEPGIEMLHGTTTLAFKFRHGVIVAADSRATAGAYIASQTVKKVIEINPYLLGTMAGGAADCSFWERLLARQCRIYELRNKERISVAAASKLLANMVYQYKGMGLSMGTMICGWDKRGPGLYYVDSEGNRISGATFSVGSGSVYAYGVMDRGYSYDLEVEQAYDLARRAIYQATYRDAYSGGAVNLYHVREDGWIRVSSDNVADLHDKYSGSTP
Method: 25 μl of a reaction buffer containing 400 μM of the fluorogenic substrate Suc-Leu-Leu-Val-Tyr-AMC (Bachem) are dispensed per well of a white microtiter plate. Test compounds dissolved in 0.5 μl DMSO are added. To start the reaction; 25 μl of reaction buffer containing 35 ng of enzyme (20S Proteasome, Rabbit, Calbiochem) are added. The increase in fluorescence (excitation at 360 nm; emission at 440 nm) is measured over 30 min at 30° C. at 30″. The IC50's are then determined from the slopes.

human μ-calpain = target: T2, human μ-calpain (Homo sapiens, UniProt P07384); assay: Enzymatic Calpain Inhibition Assay; type: biochemical; conditions: enzymatic calpain I inhibition; read-out: Calp I IC50
T2 construct: purchased Calbiochem
T2 sequence (P07384 1-714): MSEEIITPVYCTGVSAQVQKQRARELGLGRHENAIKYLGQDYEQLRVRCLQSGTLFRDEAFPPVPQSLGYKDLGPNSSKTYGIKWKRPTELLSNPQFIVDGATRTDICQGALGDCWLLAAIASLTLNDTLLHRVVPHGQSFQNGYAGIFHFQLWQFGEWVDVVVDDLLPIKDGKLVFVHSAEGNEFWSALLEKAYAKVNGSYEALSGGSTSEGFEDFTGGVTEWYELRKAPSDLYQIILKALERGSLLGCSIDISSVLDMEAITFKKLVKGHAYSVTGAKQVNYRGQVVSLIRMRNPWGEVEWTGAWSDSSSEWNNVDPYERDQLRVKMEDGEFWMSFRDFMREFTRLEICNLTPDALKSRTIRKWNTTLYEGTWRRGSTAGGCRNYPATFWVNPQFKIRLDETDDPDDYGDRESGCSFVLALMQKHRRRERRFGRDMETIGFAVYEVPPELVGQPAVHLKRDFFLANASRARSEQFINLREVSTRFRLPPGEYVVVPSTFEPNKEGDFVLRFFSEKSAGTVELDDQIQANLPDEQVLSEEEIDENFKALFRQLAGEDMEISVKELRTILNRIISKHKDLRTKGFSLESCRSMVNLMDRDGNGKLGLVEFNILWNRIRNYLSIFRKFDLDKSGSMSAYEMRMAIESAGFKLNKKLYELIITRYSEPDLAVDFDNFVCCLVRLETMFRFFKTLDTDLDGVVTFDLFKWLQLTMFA
T2 sequence (P04632 1-268 partner): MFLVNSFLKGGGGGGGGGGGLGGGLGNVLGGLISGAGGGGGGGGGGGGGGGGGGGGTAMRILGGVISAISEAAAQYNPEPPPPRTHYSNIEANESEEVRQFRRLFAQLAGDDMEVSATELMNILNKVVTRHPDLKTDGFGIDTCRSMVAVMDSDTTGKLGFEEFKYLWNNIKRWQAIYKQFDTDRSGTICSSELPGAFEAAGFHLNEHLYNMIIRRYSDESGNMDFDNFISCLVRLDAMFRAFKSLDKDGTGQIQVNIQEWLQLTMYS
Method: The Ki value was also determined in some cases. These criteria were used to measure the inhibitory effect of the compounds (I) on calpain I, calpain II and cathepsin B.
The inhibitory properties of calpain inhibitors are tested in 100 μl of a buffer containing 100 mM imidazole pH 7.5, 5 mM L-Cystein-HCl, 5 mM CaCl2, 250 μM of the calpain fluorogenic substrate Suc-Leu-Tyr-AMC (Sigma) (Sasaki et al., J. Biol. Chem., 1984, 259, 12489-12949) dissolved in 2.5 μl DMSO and 0.5 μg of human μ-calpain (Calbiochem). The inhibitors dissolved in 1 μl DMSO are added to the reaction buffer. The fluorescence of the cleavage product 7-amino-4-methylcoumarin (AMC) is followed in a SPECTRAmax GEMINI XS (Molecular Device) fluorimeter at λex=360 nm and λem=440 nm at 30° C. during 30 min at intervals of 30 sec in 96-well plates (Greiner). The initial reaction velocity at different inhibitor concentrations is plotted against the inhibitor concentration and the IC50 values determined graphically.

[1] = system: cellular calpains in C2C12 myoblasts; assay: Calpain Inhibition Assay in C2C12 Myoblasts; type: cell-based; conditions: read-out: Calp I IC50 Myoblast
Method: This assay is aimed at monitoring the ability of the substance to inhibit cellular calpains. C2C12 myoblasts are grown in 96-well plates in growth medium (DMEM, 20% foetal calf serum) until they reach confluency. The growth medium is then replaced by fusion medium (DMEM, 5% horse serum). 24 hours later the fusion medium is replaced by fusion medium containing the test substances dissolved in 1 μl DMSO. After 2 hours of incubation at 37° C. the cells are loaded with the calpain fluorogenic substrate Suc-Leu-Tyr-AMC at 400 μM in 50 μl of a reaction buffer containing 135 mM NaCl; 5 mM KCl; 4 mM CaCl2; 1 mM MgCl2; 10 mM Glucose; 10 mM HEPES pH 7.25 for 20 min at room temperature. The calcium influx, necessary to activate the cellular calpains, is evoked by the addition of 50 μl reaction buffer containing 20 μM of the calcium ionophore Br-A-23187 (Molecular Probes). The fluorescence of the cleavage product AMC is measured as described above during 60 min at 37° C. at intervals of 1 min. The IC50 values are determined as described above. Comparison of the IC50 determined in the enzymatic calpain inhibition assay to the IC50 determined in the C2C12 myoblasts calpain inhibition assay, allows to evaluate the cellular uptake or the membrane permeability of the substance.

[2] = system: utrophin protein levels in human DMD myotubes; assay: Utrophin Expression Assay in Human Myotubes; type: cell-based; conditions: 50 nM test compound
Method: Utrophin induction was determined by a method which was similar to a method of 1. Courdier-Fruh et al., Neuromuscular Disord., 2002, 12, S95-S104. Primary human muscle cell cultures were prepared from muscle biopsies taken during orthopedic surgery from Duchenne patients (provided by the Association Francaise contre les Myopathies). Cultures were prepared and maintained according to standard protocols. Induction of utrophin expression in human DMD myotubes was assayed at 50 nM or 500 nM of test compound added in differentiation medium. Normalized utrophin protein levels are determined after 56 d of incubation by cell-based ELISA with a mouse monoclonal antibody to the aminoterminal portion of utrophin (NCL-DRP2, Novocastra Laboratories). For calibration, the cell density and differentiation was determined by absorbance measurements of the total dehydrogenase enzyme activity in each well using the calorimetric CellTiter 96®AQ One Solution Reagent Proliferation Assay (Promega) according to the manufacturer's recommendation. Subsequently, cells were fixed, washed, permeabilized with 0.5% (v/v) Triton X-100 and unspecific antibody binding-sites blocked by standard procedures. Utrophin protein levels were determined immunologically with utrophin-specific primary antibody and with an appropriate peroxidase-coupled secondary antibody (Jackson ImmunoResearch Laboratories) using QuantaBlu™ Fluorogenic Peroxidase Substrate Kit (Pierce) for detection. Fluorescence measurements were carried out with a multilabel counter (Wallac) at λex=355 nm and at λem=460 nm. The primary readout of this signal is presented in arbitrary units. For calibration, the arbitrary units representing the relative utrophin protein content of each well was divided by the corresponding cell-titer absorbance value to correct for cell density. For comparison between experiments, the cell-titer corrected readout for utrophin protein content in each well was expressed in percent of solvent treated control cultures (set to 100%), i.e. data are % utrophin protein levels compared to DMSO solvent (N=4).

[3] = system: experimental muscular dystrophy in hamster; conditions: Journal of Pharmacobiodynamics, 1987, 10, 678; cited from earlier work

For `CCNC(=O)C(=O)C(Cc1ccccc1)NC(=O)C(NC(=O)C(Cc1cccc2ccccc12)NC(=O)CCCCC1CCSS1)C(C)C` (stereo not shown) [Example 735], the IC50 (20S Proteasome) was 27 nM, the IC50 (human μ-calpain) was 35 nM and the IC50 [1] was 20 nM. For the same molecule, the “UTR Induction @50 nM” value [2] was 134% and the melting point was 220 °C.

For `CCNC(=O)C(=O)C(Cc1ccc(OC)cc1)NC(=O)C(NC(=O)C(Cc1csc2ccccc12)NC(=O)CCCCC1CCS[S+]1[O-])C(C)C` (stereo not shown) [Example 606], the IC50 (20S Proteasome) was 10 nM, the IC50 (human μ-calpain) was 16 nM and the IC50 [1] was 28 nM. The “UTR Induction @50 nM” value [2] was 151% and the melting point was 190 to 192 °C.

In the case of `CCOC(=O)[C@H]1O[C@@H]1C(=O)N[C@@H](CC(C)C)C(=O)NCCC(C)C` [Example E-64-d], the “life-prolonging effect in experimental muscular dystrophy” value [3] is listed as “life-prolonging effect”.

With `CCNC(=O)C(=O)[C@H](Cc1ccc(Cl)cc1)NC(=O)[C@@H](NC(=O)[C@H](Cc1ccccc1)NC(=O)CCCCC1CCSS1)C(C)C` (stereo partly shown) [Example 1] the IC50 (human μ-calpain) was 45 nM and the IC50 [1] was 200 nM.
